Experimental data: the supplement of paper PMC10307832

Columns and labels:
Test in all cases: relative viability (nuclei count vs DMSO), 5 days (fraction); higher = more cells survive
OSI-027 + Vorinostat = compound: COc1cccc2cc(-c3nc([C@H]4CC[C@H](C(=O)O)CC4)n4ncnc(N)c34)[nH]c12 [OSI-027] + O=C(CCCCCCC(=O)Nc1ccccc1)NO [Vorinostat] (partner 1 µM)
Outline: (§1)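 Dosing by pin tool came one day after lung cancer cell lines were seeded in 1536-well plates, using either one drug or a fixed anchor-drug dose plus five library-drug doses (not always all listed) in √10 steps. After 5 days, nuclei were counted on 4× images. Relative viability is treated-well nuclei count divided by vehicle-well nuclei count, and values are medians of duplicate plates.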

Alpelisib + Pictilisib = compound: Cc1nc(NC(=O)N2CCC[C@H]2C(N)=O)sc1-c1ccnc(C(C)(C)C(F)(F)F)c1 [Alpelisib] + CS(=O)(=O)N1CCN(Cc2cc3nc(-c4cccc5[nH]ncc45)nc(N4CCOCC4)c3s2)CC1 [Pictilisib] (partner 1 µM)
Outline: as §1

Vemurafenib + Dasatinib = compound: CCCS(=O)(=O)Nc1ccc(F)c(C(=O)c2c[nH]c3ncc(-c4ccc(Cl)cc4)cc23)c1F [Vemurafenib] + Cc1nc(Nc2ncc(C(=O)Nc3c(C)cccc3Cl)s2)cc(N2CCN(CCO)CC2)n1 [Dasatinib] (partner 0.075 µM)
Outline: as §1

Alpelisib + Decitabine = compound: Cc1nc(NC(=O)N2CCC[C@H]2C(N)=O)sc1-c1ccnc(C(C)(C)C(F)(F)F)c1 [Alpelisib] + Nc1ncn([C@H]2C[C@H](O)[C@@H](CO)O2)c(=O)n1 [Decitabine] (partner 2 µM)
Outline: as §1

Cell Line	relative viability (OSI-027 + Vorinostat; first compound 0.01 µM)	relative viability (OSI-027 + Vorinostat; first compound 0.03162 µM)	relative viability (OSI-027 + Vorinostat; first compound 0.1 µM)	relative viability (OSI-027 + Vorinostat; first compound 0.3162 µM)	relative viability (OSI-027 + Vorinostat; first compound 1 µM)	relative viability (Alpelisib + Pictilisib; first compound 0.04 µM)	relative viability (Alpelisib + Pictilisib; first compound 0.1265 µM)	relative viability (Alpelisib + Pictilisib; first compound 0.4 µM)	relative viability (Alpelisib + Pictilisib; first compound 1.265 µM)	relative viability (Alpelisib + Pictilisib; first compound 4 µM)	relative viability (Vemurafenib + Dasatinib; first compound 0.03162 µM)	relative viability (Vemurafenib + Dasatinib; first compound 0.3162 µM)	relative viability (Vemurafenib + Dasatinib; first compound 1 µM)	relative viability (Alpelisib + Decitabine; first compound 0.04 µM)	relative viability (Alpelisib + Decitabine; first compound 0.1265 µM)	relative viability (Alpelisib + Decitabine; first compound 0.4 µM)	relative viability (Alpelisib + Decitabine; first compound 1.265 µM)	relative viability (Alpelisib + Decitabine; first compound 4 µM)	relative viability (Vemurafenib + Dasatinib; first compound 0.1 µM)
HCC-827	0.61	0.851	0.768	0.852	0.475	0.887	1.18	0.933	0.973	0.651	0.386	0.399	0.348	0.33	0.346	0.347	0.302	0.254	–
HOP-62	0.586	0.662	0.53	0.546	0.296	1.06	0.698	0.988	0.586	0.727	0.535	0.292	0.66	0.259	0.22	0.216	0.234	0.283	0.549
IA-LM	0.997	0.388	0.652	0.479	0.15	0.265	0.412	0.432	0.335	0.327	–	–	–	–	–	–	–	–	–
LC-2-ad	0.718	0.703	0.758	0.854	0.549	0.443	0.435	0.434	0.296	0.415	0.592	–	0.559	0.823	0.767	0.83	0.735	0.768	0.669
LCLC-97TM1	0.816	0.642	0.699	0.503	0.345	0.178	0.175	0.179	0.195	0.21	0.76	1.05	0.685	0.232	0.222	0.213	0.191	0.177	0.853
LCLC-103H	0.781	0.64	0.747	0.704	0.613	0.721	0.695	0.506	0.56	0.526	0.45	0.317	0.388	0.688	0.717	0.775	0.571	0.465	0.505
LK-2	0.272	0.296	0.244	0.176	0.179	0.531	0.571	0.643	0.524	0.578	0.306	0.33	0.223	0.289	0.256	0.254	0.198	0.185	0.306
LOU-NH91	0.858	0.913	0.69	0.712	0.479	0.537	0.504	0.559	0.52	0.457	0.509	–	0.572	0.823	0.781	0.79	0.679	0.648	–
LU99A	0.491	0.667	0.396	0.304	0.232	0.293	0.278	0.374	0.296	0.251	0.425	0.389	0.431	0.822	0.838	0.899	0.666	0.579	0.554
LXF-289	0.767	0.836	0.827	0.902	0.787	0.762	0.805	0.855	0.707	0.733	0.203	0.0972	0.181	0.373	0.352	0.336	0.377	0.277	0.236
NCI-H23	0.58	0.232	0.406	0.398	0.303	0.605	0.493	0.528	0.419	0.464	0.754	0.737	0.434	0.322	0.276	0.327	0.28	0.198	0.77
NCI-H322M	0.869	0.863	0.748	0.663	0.624	0.491	0.553	0.544	0.473	0.478	0.241	–	0.229	0.722	0.707	0.721	0.627	0.529	–
NCI-H522	0.768	1.02	0.883	0.686	0.638	–	–	–	–	–	1.08	0.875	0.855	0.707	0.741	0.681	0.591	0.61	0.718
NCI-H1299	–	–	–	–	–	0.871	0.76	0.793	0.796	0.599	–	–	–	–	–	–	–	–	–
NCI-H1563	–	–	–	–	–	0.647	0.734	0.67	0.613	0.676	0.526	0.465	0.419	–	–	–	–	–	0.432
NCI-H1623	–	–	–	–	–	–	–	–	–	–	0.565	0.716	0.485	–	–	–	–	–	–
NCI-H1648	0.369	0.323	–	0.477	0.236	–	–	–	–	–	–	–	–	0.477	0.508	0.353	0.372	0.253	–
NCI-H1703	–	–	–	–	–	0.254	0.249	0.227	0.235	0.26	–	–	–	–	–	–	–	–	–
NCI-H1792	–	–	–	–	–	0.227	0.306	0.309	0.253	0.206	0.84	–	0.815	0.444	0.368	0.581	0.443	0.401	0.733
NCI-H2228	0.509	0.511	0.528	0.564	0.45	0.473	0.326	0.547	0.445	0.221	0.399	0.54	0.502	–	–	–	–	–	0.474
NCI-H2342	0.715	0.611	0.683	0.768	0.547	–	–	–	–	–	0.313	0.266	0.326	0.697	0.666	0.701	0.711	0.503	0.304
SW 900	0.545	0.592	0.386	0.421	0.206	–	–	–	–	–	0.827	0.538	0.505	0.425	–	0.411	0.505	0.379	0.61
